Experimental data from PMC10501326, “A Phase I Study of the Pan-Notch Inhibitor CB-103 for Patients with Advanced Adenoid Cystic Carcinoma and Other Tumors” (Cancer Research Communications, 2023).
Values joined by “and” are separate entries in the source; they are usually repeats but may differ in a detail not shown here. Identical values can stand only once.

Experiment: Phase I/II safety and tolerability: DLTs and treatment-related adverse events (CTCAE v4.03)
Format: in vivo
Excerpt: The study was an open-label, nonrandomized, phase I/II dose-escalation study with planned expansion cohorts. […] Part B was a potential expansion phase at the MTD/RP2D to determine preliminary evidence of antitumor activity and to confirm safety among patients stratified by preselected cancer indications.
Part A was based on a two-parameter Bayesian logistic regression model (BLRM) to investigate safety and tolerability of sequentially enrolled dose cohorts of 3–6 patients. The first 2 participants of each cohort were enrolled in a staggered approach with at least 1 day apart between first dosing.
12-lead electrocardiograms and Holter safety monitoring with periodic cardiac imaging was employed. Efficacy assessments used RECIST v1.1 applied to CT/MRI scans performed at screening and every 8 weeks; or evaluated complete remission with complete hematologic recovery by National Comprehensive Cancer Network guideline criteria for T-ALL/T-LBL. Adherence to study drug administration was evaluated using both patient diaries and capsule counts.
Secondary endpoints included assessment of clinical benefit rate [CBR; defined as achieving complete and/or partial response and/or stable disease (SD) at prespecified benchmarks], duration of response, progression-free survival (PFS) and overall survival (OS), and plasma pharmacokinetics.
The SS was the primary population for all safety and efficacy analyses, except for determination of dose-DLT relationship.
Under this model, and accounting for dropouts and some additional patients enrolled to each cohort, approximately 55 patients were anticipated to enroll in dose escalation and approximately 45 patients in the confirmatory phase. […] All statistical analyses were analyzed using SAS v9.4 software.

[1] = N = 79, per-patient, CTCAE v4.03

CC(C)(C)c1ccc(Oc2ccc(N)cn2)cc1 [CB-103]
Number of DLTs observed (12 dose-escalation cohorts (n = 64)): Two | Recommended phase II dose (RP2D) (5 days on, 2 days off weekly): 500 mg twice daily | N DLT (CH8 522 mg QD, N=4): 1 | N DLT (CH11 400 mg BID, 5/2, N=6): 1 | Grade 4 TRAE elevated lipase (N = 79): ^aThe two TRAEs classified as grade 4 were elevated lipase (one event) and elevated liver function tests (one event). | Grade 4 TRAE elevated liver function tests (N = 79): ^aThe two TRAEs classified as grade 4 were elevated lipase (one event) and elevated liver function tests (one event). | TRAE Anemia, any grade [1]: 13 (16) N (%) | TRAE Anemia, grade 1–2 [1]: 9 (11) N (%) | TRAE Anemia, grade 3 [1]: 4 (5) N (%) | TRAE Any AE, any grade [1]: 60 (76) N (%) | TRAE Any AE, grade 1–2 [1]: 47 (60) N (%) | TRAE Any AE, grade 3 [1]: 13 (16) N (%) | TRAE Any AE, grade 4 [1]: 2 (3) N (%) | TRAE Blood and lymphatic system disorders, any grade [1]: 13 (17) N (%) | TRAE Blood and lymphatic system disorders, grade 1–2 [1]: 9 (11) N (%) | TRAE Blood and lymphatic system disorders, grade 3 [1]: 4 (5) N (%) | TRAE Diarrhea, any grade [1]: 10 (13) N (%) | TRAE Diarrhea, grade 1–2 [1]: 10 (13) N (%) | TRAE Dyschromatopsia, any grade [1]: 15 (19) N (%) | TRAE Dyschromatopsia, grade 1–2 [1]: 15 (19) N (%) | TRAE Dyspepsia, any grade [1]: 10 (13) N (%) | TRAE Dyspepsia, grade 1–2 [1]: 10 (13) N (%) | TRAE Eye disorders, any grade [1]: 37 (47) N (%) | TRAE Eye disorders, grade 1–2 [1]: 36 (46) N (%) | TRAE Eye disorders, grade 3 [1]: 1 (1) N (%) | TRAE Fatigue, any grade [1]: 9 (11) N (%) | TRAE Fatigue, grade 1–2 [1]: 9 (11) N (%) | TRAE Gastrointestinal disorders, any grade [1]: 39 (49) N (%) | TRAE Gastrointestinal disorders, grade 1–2 [1]: 38 (48) N (%) | TRAE Gastrointestinal disorders, grade 3 [1]: 1 (1) N (%) | TRAE General disorders and administration site conditions, grade 1–2 [1]: 9 (11) N (%) | TRAE General disorders and administration site conditions, grade 3 [1]: 1 (1) N (%) | TRAE Laboratory investigations, any grade [1]: 13 (16) N (%) | TRAE Laboratory investigations, grade 1–2 [1]: 8 (10) N (%) | TRAE Laboratory investigations, grade 3 [1]: 5 (6) N (%) | TRAE Nausea, any grade [1]: 17 (22) N (%) | TRAE Nausea, grade 1–2 [1]: 17 (22) N (%) | TRAE Skin and subcutaneous tissue disorders, any grade [1]: 8 (10) N (%) | TRAE Skin and subcutaneous tissue disorders, grade 1–2 [1]: 6 (8) N (%) | TRAE Skin and subcutaneous tissue disorders, grade 3 [1]: 2 (3) N (%) | TRAE Vision blurred, any grade [1]: 12 (15) N (%) | TRAE Vision blurred, grade 1–2 [1]: 12 (15) N (%) | TRAE Visual impairment, any grade [1]: 8 (10) N (%) | TRAE Visual impairment, grade 1–2 [1]: 7 (9) N (%) | TRAE Visual impairment, grade 3 [1]: 1 (1) N (%) | TRAE Vomiting, any grade [1]: 9 (11) N (%) | TRAE Vomiting, grade 1–2 [1]: 8 (10) N (%) | TRAE Vomiting, grade 3 [1]: 1 (1) N (%) | Grade 3 or 4 TRAEs, number reported (SS population (n = 79)): 26 | Patients who interrupted or required dose adjustment (all patients): 32 patients (%) | DLT: patients with asymptomatic grade 3 elevation in gamma-glutamyl transferase leading to drug discontinuation (cohort 8 (552 mg daily dose)): 1 patient | DLT observed in cohort 11 (cohort 11 (400 mg twice daily, 5 days on and 2 off each week), dose interruption, continued at reduced dose): grade 3 visual impairment | MTD (dose escalation up to 500 mg twice daily 5/2): not reached | Resumed at the dose prior to interruption (in vivo): 81 % of the time | Deaths related to study treatment (n = 79): no drug-related deaths | Grade 3–4 TRAE anemia (n = 79): 7 events | Grade 3–4 TRAE elevated liver function tests (n = 79): 5 events | Grade 3–4 TRAE elevated serum amylase or lipase (n = 79): 3 events | Patients with grade 3–4 TRAEs (n = 79): 15 patients (%) and 15 (19%) patients (%) | Median duration of interruption for TRAEs (range: 1–14): 5 days
